biological target: human LPAR1 (Homo sapiens (Human), UniProt Q92633); experiment: LPAR1 intracellular calcium mobilization assay (antagonist mode, FLIPR); type: cell-based; conditions: CHO-K1 EDG2 cells expressing human LPAR1, LPA 18:2 at EC80 (100 nM), test compound 0.5 nM to 10 μM
Sequence (Q92633 whole entry): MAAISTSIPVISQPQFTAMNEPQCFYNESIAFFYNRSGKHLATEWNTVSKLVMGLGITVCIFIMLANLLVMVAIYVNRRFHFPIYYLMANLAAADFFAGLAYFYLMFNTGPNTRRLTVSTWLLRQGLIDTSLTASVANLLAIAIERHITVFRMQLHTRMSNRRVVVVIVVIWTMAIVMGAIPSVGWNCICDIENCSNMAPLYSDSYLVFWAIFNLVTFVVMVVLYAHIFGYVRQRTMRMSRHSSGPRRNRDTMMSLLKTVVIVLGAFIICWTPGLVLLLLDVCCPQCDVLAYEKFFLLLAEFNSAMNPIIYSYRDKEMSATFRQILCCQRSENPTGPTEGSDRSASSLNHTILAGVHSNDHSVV

Row | Compound | EC50 [nM]
1 | C[C@@H](OC(=O)Nc1c(-c2ccc(NC(=O)C3(Cl)CC3)cn2)nnn1C)c1cccnc1Cl [Compound 40, (R)-1-(2-chloropyridin-3-yl)ethyl (4-(5-(1-chlorocyclopropane-1-carboxamido)pyridin-2-yl)-1-methyl-1H-1,2,3-triazol-5-yl)carbamate] | 75.2
2 | C[C@@H](OC(=O)Nc1c(-c2ccc(NC(=O)[C@H]3C[C@@H](C#N)C3)cn2)nnn1C)c1cccnc1Cl [Compound 128, (R)-1-(2-chloropyridin-3-yl)ethyl (4-(5-((1s,3S)-3-cyanocyclobutane-1-carboxamido)pyridin-2-yl)-1-methyl-1H-1,2,3-triazol-5-yl)carbamate] | 309
3 | C[C@@H](OC(=O)Nc1c(-c2ccc(NC(=O)C#CC3CC3)cn2)nnn1C)c1cccnc1Cl [Compound 75, (R)-1-(2-chloropyridin-3-yl)ethyl (4-(5-(3-cyclopropylpropiolamido)pyridin-2-yl)-1-methyl-1H-1,2,3-triazol-5-yl)carbamate] | 23.4
4 | C[C@@H](OC(=O)Nc1c(-c2ccc(NC(=O)c3cnc(C#N)nc3)cn2)nnn1C)c1cc(F)cnc1F [Compound 235, (R)-1-(2,5-difluoropyridin-3-yl)ethyl (4-(5-(2-cyanopyrimidine-5-carboxamido)pyridin-2-yl)-1-methyl-1H-1,2,3-triazol-5-yl)carbamate] | 26.5
5 | C[C@@H](OC(=O)Nc1c(-c2ccc(NC(=O)C34CC(C#N)(C3)C4)cn2)nnn1C)c1cccnc1Cl [Compound 64, (R)-1-(2-chloropyridin-3-yl)ethyl (4-(5-(3-cyanobicyclo[1.1.1]pentane-1-carboxamido)pyridin-2-yl)-1-methyl-1H-1,2,3-triazol-5-yl)carbamate] | 76.4
6 | C[C@@H](OC(=O)Nc1c(-c2ccc(NC(=O)c3cnccc3Cl)cn2)nnn1C)c1cc(F)cnc1F [Compound 253, (R)-1-(2,5-difluoropyridin-3-yl)ethyl (4-(5-(4-chloronicotinamido)pyridin-2-yl)-1-methyl-1H-1,2,3-triazol-5-yl)carbamate] | 551
7 | C[C@@H](OC(=O)Nc1c(-c2ccc(NC(=O)c3ccc(C(F)(F)F)nc3F)cn2)nnn1C)c1cc(F)cnc1F [Compound 254, (R)-1-(2,5-difluoropyridin-3-yl)ethyl (4-(5-(2-fluoro-6-(trifluoromethyl)nicotinamido)pyridin-2-yl)-1-methyl-1H-1,2,3-triazol-5-yl)carbamate] | 18.1
8 | C[C@@H](OC(=O)Nc1c(-c2ccc(NC(=O)C3(C#N)COC3)cn2)nnn1C)c1cccnc1Cl [Compound 93, (R)-1-(2-chloropyridin-3-yl)ethyl (4-(5-(3-cyanooxetane-3-carboxamido)pyridin-2-yl)-1-methyl-1H-1,2,3-triazol-5-yl)carbamate] | 133
9 | C[C@@H](OC(=O)Nc1c(-c2ccc(NC(=O)[C@@H]3C[C@H]3c3ccncc3Cl)cn2)nnn1C)c1cc(F)cnc1F (mixture of isomers) [Compound 238, (R)-1-(2,5-difluoropyridin-3-yl)ethyl (4-(5-((1RS,2RS)-2-(3-chloropyridin-4-yl)cyclopropane-1-carboxamido)pyridin-2-yl)-1-methyl-1H-1,2,3-triazol-5-yl)carbamate] | 52.5
10 | Cc1cc(C(=O)Nc2ccc(-c3nnn(C)c3NC(=O)O[C@H](C)c3cc(F)cnc3F)nc2)cnn1 [Compound 231, (R)-1-(2,5-difluoropyridin-3-yl)ethyl (1-methyl-4-(5-(6-methylpyridazine-4-carboxamido)pyridin-2-yl)-1H-1,2,3-triazol-5-yl)carbamate] | 412
11 | CC(=O)NC12CC(C(=O)Nc3ccc(-c4nnn(C)c4NC(=O)O[C@H](C)c4cccnc4Cl)nc3)(C1)C2 [Compound 312] | 1530
12 | CC1CC1(C#N)C(=O)Nc1ccc(-c2nnn(C)c2NC(=O)O[C@H](C)c2cccnc2Cl)nc1 (stereo partly drawn) [Compound 148, (R)-1-(2-chloropyridin-3-yl)ethyl (4-(5-(1-cyano-2-methylcyclopropane-1-carboxamido)pyridin-2-yl)-1-methyl-1H-1,2,3-triazol-5-yl)carbamate] | 30.4
13 | C[C@@H](OC(=O)Nc1c(-c2ccc(NC(=O)C3CC4(CC4)C3)cn2)nnn1C)c1cccnc1Cl [Compound 88, (R)-1-(2-chloropyridin-3-yl)ethyl (1-methyl-4-(5-(spiro[2.3]hexane-5-carboxamido)pyridin-2-yl)-1H-1,2,3-triazol-5-yl)carbamate] | 8.6
14 | C[C@@H](OC(=O)Nc1c(-c2ccc(NC(=O)c3ccnc(C#N)c3)cn2)nnn1C)c1cccnc1Cl [Compound 100, (R)-1-(2-chloropyridin-3-yl)ethyl (4-(5-(2-cyanoisonicotinamido)pyridin-2-yl)-1-methyl-1H-1,2,3-triazol-5-yl)carbamate] | 90.8
15 | CC(=O)Nc1ccc(-c2nnn(C)c2NC(=O)O[C@H](C)c2cccnc2Cl)nc1F [Compound 5, [(1R)-1-(2-chloro-3-pyridyl)ethyl] N-[5-(5-acetamido-6-fluoro-2-pyridyl)-3-methyl-triazol-4-yl]carbamate] | 1510
16 | C[C@@H](OC(=O)Nc1c(-c2ccc(NC(=O)c3ccc(=O)n(C)c3)cn2)nnn1C)c1cc(F)cnc1F [Compound 236, (R)-1-(2,5-difluoropyridin-3-yl)ethyl (1-methyl-4-(5-(1-methyl-6-oxo-1,6-dihydropyridine-3-carboxamido)pyridin-2-yl)-1H-1,2,3-triazol-5-yl)carbamate] | 1660
17 | CO[C@@H]1C[C@H]1C(=O)Nc1ccc(-c2nnn(C)c2NC(=O)O[C@H](C)c2cc(F)cnc2F)nc1 (mixture of isomers) [Compound 210, (R)-1-(2,5-difluoropyridin-3-yl)ethyl (4-(5-((1RS,2RS)-2-methoxycyclopropane-1-carboxamido)pyridin-2-yl)-1-methyl-1H-1,2,3-triazol-5-yl)carbamate] | 243
18 | CC(=O)Nc1ccc(-c2nnn(C)c2NC(=O)OC(C)c2ccc(F)nc2Cl)nc1 (centres unmarked) [Compound 182, 1-(2-chloro-6-fluoropyridin-3-yl)ethyl (4-(5-acetamidopyridin-2-yl)-1-methyl-1H-1,2,3-triazol-5-yl)carbamate] | 2050
19 | C[C@@H](OC(=O)Nc1c(-c2ccc(NC(=O)C3(C)CC(F)(F)C3)cn2)nnn1C)c1cc(F)cnc1F [Compound 226, (R)-1-(2,5-difluoropyridin-3-yl)ethyl (4-(5-(3,3-difluoro-1-methylcyclobutane-1-carboxamido)pyridin-2-yl)-1-methyl-1H-1,2,3-triazol-5-yl)carbamate] | 184
20 | C[C@@H](OC(=O)Nc1c(-c2cnc(NC(=O)c3ccc(C(F)(F)F)nc3)cn2)nnn1C)c1cc(F)cnc1F [Compound 322, (R)-1-(2,5-difluoropyridin-3-yl)ethyl (1-methyl-4-(5-(6-(trifluoromethyl)nicotinamido)pyrazin-2-yl)-1H-1,2,3-triazol-5-yl)carbamate] | 170
21 | C[C@@H](OC(=O)Nc1c(-c2ccc(NC(=O)C34CC(C#N)(C3)C4)cn2)nnn1C)c1cc(F)cnc1Cl [Compound 167, (R)-1-(2-chloro-5-fluoropyridin-3-yl)ethyl (4-(5-(3-cyanobicyclo[1.1.1]pentane-1-carboxamido)pyridin-2-yl)-1-methyl-1H-1,2,3-triazol-5-yl)carbamate] | 99.4
22 | C[C@@H](OC(=O)Nc1c(-c2ccc(NC(=O)[C@H]3C[C@H]3F)cn2)nnn1C)c1cccnc1Cl [Compound 56, (R)-1-(2-chloropyridin-3-yl)ethyl (4-(5-((1R,2R)-2-fluorocyclopropane-1-carboxamido)pyridin-2-yl)-1-methyl-1H-1,2,3-triazol-5-yl)carbamate] | 1140
23 | C[C@@H](OC(=O)Nc1c(-c2ccc(NC(=O)c3ccc(C(F)(F)F)nc3)cn2)nnn1C)c1cccnc1F [Compound 296, (R)-1-(2-fluoropyridin-3-yl)ethyl (1-methyl-4-(5-(6-(trifluoromethyl)nicotinamido)pyridin-2-yl)-1H-1,2,3-triazol-5-yl)carbamate] | 46.9
24 | C[C@@H](OC(=O)Nc1c(-c2ccc(NC(=O)c3cccnc3)cn2)nnn1C)c1cccnc1Cl [Compound 58, (R)-1-(2-chloropyridin-3-yl)ethyl (1-methyl-4-(5-(nicotinamido)pyridin-2-yl)-1H-1,2,3-triazol-5-yl)carbamate] | 205
25 | C[C@@H](OC(=O)Nc1c(-c2ccc(NC(=O)c3cnc(N(C)C)nc3)cn2)nnn1C)c1cc(F)cnc1F [Compound 282, (R)-1-(2,5-difluoropyridin-3-yl)ethyl (4-(5-(2-(dimethylamino)pyrimidine-5-carboxamido)pyridin-2-yl)-1-methyl-1H-1,2,3-triazol-5-yl)carbamate] | 1190
26 | C[C@@H](OC(=O)Nc1c(-c2ccc(NC(=O)C3CC4(CC(C#N)C4)C3)cn2)nnn1C)c1cccnc1Cl (stereo partly drawn) [Compound 80, (R)-1-(2-chloropyridin-3-yl)ethyl (4-(5-(6-cyanospiro[3.3]heptane-2-carboxamido)pyridin-2-yl)-1-methyl-1H-1,2,3-triazol-5-yl)carbamate] | 109
27 | C[C@@H](OC(=O)Nc1c(-c2ccc(NC(=O)C3CC(F)(F)C3)cn2)nnn1C)c1cc(F)cnc1F [Compound 28, (R)-1-(2,5-difluoropyridin-3-yl)ethyl (4-(5-(3,3-difluorocyclobutane-1-carboxamido)pyridin-2-yl)-1-methyl-1H-1,2,3-triazol-5-yl)carbamate] | 29.1
28 | C[C@@H](OC(=O)Nc1c(-c2ccc(NC(=O)c3ccc(C(F)F)nc3)cn2)nnn1C)c1cccnc1F [Compound 295, (R)-1-(2-fluoropyridin-3-yl)ethyl (4-(5-(6-(difluoromethyl)nicotinamido)pyridin-2-yl)-1-methyl-1H-1,2,3-triazol-5-yl)carbamate] | 391
29 | Cc1cc(C2(C(=O)Nc3ccc(-c4nnn(C)c4NC(=O)O[C@H](C)c4cccnc4Cl)nc3)CC2)on1 [Compound 160, (R)-1-(2-chloropyridin-3-yl)ethyl (1-methyl-4-(5-(1-(3-methylisoxazol-5-yl)cyclopropane-1-carboxamido)pyridin-2-yl)-1H-1,2,3-triazol-5-yl)carbamate] | 1450

From patent publication US11912686B2 (Gilead Sciences, Inc., priority 2020, dated 2024)
